Tests used:
[1] = target: T1, Serine/threonine-protein kinase ULK1 (Homo sapiens) (UniProt O75385); assay: Selectivity interaction (Kinase panel (KiNativ target engagement assay in Jurkat cells)) EUB0001635a ULK1; type: cell-based; settings: Selectivity number of off-targets 0.0, Selectivity number of targets 233.0, Source Knowledge https://www.sciencedirect.com/science/article/pii/S2451945619300674?via%3Dihub, at 1 µM
T1 sequence (whole entry): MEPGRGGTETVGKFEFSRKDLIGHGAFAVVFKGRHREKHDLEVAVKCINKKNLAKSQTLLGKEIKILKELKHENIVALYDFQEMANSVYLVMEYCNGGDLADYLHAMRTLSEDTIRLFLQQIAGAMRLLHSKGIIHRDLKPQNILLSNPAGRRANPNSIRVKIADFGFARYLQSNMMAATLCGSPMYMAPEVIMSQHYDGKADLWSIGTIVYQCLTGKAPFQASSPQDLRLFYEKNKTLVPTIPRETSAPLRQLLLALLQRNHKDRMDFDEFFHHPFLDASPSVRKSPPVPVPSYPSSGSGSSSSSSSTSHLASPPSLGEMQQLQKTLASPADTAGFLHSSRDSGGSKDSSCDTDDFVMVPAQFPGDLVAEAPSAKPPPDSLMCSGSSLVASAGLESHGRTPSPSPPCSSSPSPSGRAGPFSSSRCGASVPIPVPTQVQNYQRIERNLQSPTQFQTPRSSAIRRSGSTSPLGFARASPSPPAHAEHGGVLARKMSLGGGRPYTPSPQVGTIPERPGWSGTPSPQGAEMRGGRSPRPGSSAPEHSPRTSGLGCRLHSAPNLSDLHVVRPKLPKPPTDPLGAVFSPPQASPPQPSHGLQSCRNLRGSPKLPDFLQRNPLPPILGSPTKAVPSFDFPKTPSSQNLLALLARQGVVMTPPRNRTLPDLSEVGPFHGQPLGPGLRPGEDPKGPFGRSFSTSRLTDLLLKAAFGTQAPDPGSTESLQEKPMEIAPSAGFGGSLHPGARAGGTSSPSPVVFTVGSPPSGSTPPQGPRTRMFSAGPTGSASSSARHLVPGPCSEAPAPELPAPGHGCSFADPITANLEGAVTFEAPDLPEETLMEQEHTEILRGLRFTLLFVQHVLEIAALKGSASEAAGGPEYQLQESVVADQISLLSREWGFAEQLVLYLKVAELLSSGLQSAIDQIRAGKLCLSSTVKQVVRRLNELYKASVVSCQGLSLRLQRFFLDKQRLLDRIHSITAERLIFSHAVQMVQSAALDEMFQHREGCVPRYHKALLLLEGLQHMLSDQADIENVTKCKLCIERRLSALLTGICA

[2] = target: Phosphatidylinositol 4-kinase beta (Homo sapiens, UniProt Q9UBF8); assay: Selectivity interaction (Kinase panel (KiNativ target engagement assay in Jurkat cells)) EUB0001635a PI4KB; type: cell-based; settings: Selectivity number of off-targets 0.0, Selectivity number of targets 233.0, Source Knowledge https://www.sciencedirect.com/science/article/pii/S2451945619300674?via%3Dihub, at 1 µM
[3] = target: Ephrin type-A receptor 7 (Homo sapiens) (UniProt Q15375); assay: Selectivity interaction (KinomeScan (DiscoverX)) EUB0000595a EPHA7; settings: at 10 µM
Aurora kinase B = Aurora kinase B (Homo sapiens, UniProt Q96GD4); assay: Selectivity interaction (KinomeScan (DiscoverX)) EUB0000666a AURKB; settings: at 10 µM
[4] = target: Casein kinase I isoform gamma-3 (Homo sapiens) (UniProt Q9Y6M4); assay: Selectivity interaction (KinomeScan (DiscoverX)) EUB0000666a CSNK1G3; settings: at 10 µM
[5] = target: T2, Interleukin-1 receptor-associated kinase 3 (Homo sapiens) (UniProt Q9Y616); settings: at 10 µM
T2 sequence (whole entry): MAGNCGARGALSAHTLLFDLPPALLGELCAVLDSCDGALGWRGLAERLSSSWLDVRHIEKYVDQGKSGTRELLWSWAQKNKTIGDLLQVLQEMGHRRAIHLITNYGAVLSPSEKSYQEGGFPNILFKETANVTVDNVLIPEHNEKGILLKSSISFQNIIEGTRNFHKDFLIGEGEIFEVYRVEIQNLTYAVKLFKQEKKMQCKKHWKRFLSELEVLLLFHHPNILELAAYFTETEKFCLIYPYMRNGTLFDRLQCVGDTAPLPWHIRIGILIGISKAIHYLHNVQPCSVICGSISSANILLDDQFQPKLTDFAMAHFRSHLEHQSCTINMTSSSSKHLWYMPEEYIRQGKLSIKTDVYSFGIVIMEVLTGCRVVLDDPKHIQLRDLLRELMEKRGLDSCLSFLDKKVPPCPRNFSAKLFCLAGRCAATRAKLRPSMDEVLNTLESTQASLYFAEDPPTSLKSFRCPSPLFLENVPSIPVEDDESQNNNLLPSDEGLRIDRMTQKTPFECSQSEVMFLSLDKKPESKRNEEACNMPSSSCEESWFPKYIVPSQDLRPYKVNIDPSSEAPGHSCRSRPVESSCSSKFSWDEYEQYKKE

[6] = target: Ribosomal protein S6 kinase alpha-6 (Homo sapiens, UniProt Q9UK32); assay: Selectivity interaction (KinomeScan (DiscoverX)) EUB0001619a RPS6KA6; settings: at 1 µM
[7] = target: Leukocyte tyrosine kinase receptor (Homo sapiens, UniProt P29376); assay: Selectivity interaction (KinomeScan (DiscoverX)) EUB0000607a LTK; settings: at 10 µM
[8] = target: TGF-beta receptor type-2 (Homo sapiens) (UniProt P37173); assay: Selectivity interaction (KinomeScan (DiscoverX)) EUB0000618a TGFBR2; settings: at 10 µM
[9] = target: Mitogen-activated protein kinase 14 (Homo sapiens, UniProt Q16539); settings: at 10 µM
[10] = target: T3, Protein kinase C iota type (Homo sapiens) (UniProt P41743); assay: Selectivity interaction (ActivX KiNativ screen (kinase selectivity in THP-1 cell lysates)) EUB0000639a PRKCI; type: subcellular; settings: lysate, at 5 µM
T3 sequence (whole entry): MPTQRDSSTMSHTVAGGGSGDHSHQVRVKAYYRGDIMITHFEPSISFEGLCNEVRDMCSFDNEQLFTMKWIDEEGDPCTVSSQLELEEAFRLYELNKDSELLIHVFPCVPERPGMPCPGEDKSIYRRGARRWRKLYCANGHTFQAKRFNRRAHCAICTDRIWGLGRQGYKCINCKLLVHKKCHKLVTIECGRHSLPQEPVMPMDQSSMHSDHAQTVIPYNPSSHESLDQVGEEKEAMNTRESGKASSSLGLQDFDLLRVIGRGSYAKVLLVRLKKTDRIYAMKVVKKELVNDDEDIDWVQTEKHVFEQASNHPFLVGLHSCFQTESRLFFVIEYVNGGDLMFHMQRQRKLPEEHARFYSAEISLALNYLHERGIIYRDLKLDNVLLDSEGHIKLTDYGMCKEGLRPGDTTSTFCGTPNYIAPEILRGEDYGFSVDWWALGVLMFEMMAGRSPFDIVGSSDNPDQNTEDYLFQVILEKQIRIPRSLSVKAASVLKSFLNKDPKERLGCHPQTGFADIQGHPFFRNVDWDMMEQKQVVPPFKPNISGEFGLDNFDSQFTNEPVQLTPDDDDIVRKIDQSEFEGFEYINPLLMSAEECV

Chain of Aurora kinase B (Q96GD4 whole entry, canonical isoform): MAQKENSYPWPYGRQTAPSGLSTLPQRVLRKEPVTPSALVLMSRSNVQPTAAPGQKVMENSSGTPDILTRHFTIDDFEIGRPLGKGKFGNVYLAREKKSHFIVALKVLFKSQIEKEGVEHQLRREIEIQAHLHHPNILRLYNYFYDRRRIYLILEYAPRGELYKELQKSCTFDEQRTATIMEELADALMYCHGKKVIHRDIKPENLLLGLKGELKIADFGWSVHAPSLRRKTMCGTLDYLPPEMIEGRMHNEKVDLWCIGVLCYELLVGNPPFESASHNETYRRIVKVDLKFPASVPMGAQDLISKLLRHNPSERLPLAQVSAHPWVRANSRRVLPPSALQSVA
Chain of TGF-beta receptor type-2 (Homo sapiens) (P37173 whole entry): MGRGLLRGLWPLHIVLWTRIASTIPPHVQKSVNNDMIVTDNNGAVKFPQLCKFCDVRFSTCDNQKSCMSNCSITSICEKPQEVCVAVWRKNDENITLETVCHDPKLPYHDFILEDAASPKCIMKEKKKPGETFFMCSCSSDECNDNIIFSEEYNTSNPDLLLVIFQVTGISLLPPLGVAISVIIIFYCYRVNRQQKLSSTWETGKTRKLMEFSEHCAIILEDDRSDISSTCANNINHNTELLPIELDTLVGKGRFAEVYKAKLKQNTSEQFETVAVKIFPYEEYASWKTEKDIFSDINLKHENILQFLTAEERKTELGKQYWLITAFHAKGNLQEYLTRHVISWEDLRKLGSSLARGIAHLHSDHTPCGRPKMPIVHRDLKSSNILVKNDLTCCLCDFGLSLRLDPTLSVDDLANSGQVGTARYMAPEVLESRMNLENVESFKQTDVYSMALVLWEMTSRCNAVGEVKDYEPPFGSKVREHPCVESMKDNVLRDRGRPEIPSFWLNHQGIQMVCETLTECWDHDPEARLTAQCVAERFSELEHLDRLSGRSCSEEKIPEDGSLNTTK
Chain of Ribosomal protein S6 kinase alpha-6 (Q9UK32 whole entry): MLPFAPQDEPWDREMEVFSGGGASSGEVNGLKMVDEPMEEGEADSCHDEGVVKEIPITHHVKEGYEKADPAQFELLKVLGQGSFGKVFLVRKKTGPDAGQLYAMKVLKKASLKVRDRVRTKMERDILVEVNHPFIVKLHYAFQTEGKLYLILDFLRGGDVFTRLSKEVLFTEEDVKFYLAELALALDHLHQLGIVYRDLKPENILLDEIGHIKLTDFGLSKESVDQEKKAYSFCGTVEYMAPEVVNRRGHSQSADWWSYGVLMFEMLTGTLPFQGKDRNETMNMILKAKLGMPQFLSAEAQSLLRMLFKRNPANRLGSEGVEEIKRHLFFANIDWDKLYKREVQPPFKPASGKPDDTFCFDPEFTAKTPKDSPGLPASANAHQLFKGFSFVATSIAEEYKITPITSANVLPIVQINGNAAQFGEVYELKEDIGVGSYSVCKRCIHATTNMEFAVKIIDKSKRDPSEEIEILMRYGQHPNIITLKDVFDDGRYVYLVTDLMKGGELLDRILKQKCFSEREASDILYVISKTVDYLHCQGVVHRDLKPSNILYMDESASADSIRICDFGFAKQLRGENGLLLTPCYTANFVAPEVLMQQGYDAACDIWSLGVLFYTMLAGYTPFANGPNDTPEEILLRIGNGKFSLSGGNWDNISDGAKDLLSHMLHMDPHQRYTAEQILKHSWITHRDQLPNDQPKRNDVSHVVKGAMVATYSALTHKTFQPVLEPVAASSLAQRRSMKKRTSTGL
Chain of Ephrin type-A receptor 7 (Homo sapiens) (Q15375 28-998 limits assumed): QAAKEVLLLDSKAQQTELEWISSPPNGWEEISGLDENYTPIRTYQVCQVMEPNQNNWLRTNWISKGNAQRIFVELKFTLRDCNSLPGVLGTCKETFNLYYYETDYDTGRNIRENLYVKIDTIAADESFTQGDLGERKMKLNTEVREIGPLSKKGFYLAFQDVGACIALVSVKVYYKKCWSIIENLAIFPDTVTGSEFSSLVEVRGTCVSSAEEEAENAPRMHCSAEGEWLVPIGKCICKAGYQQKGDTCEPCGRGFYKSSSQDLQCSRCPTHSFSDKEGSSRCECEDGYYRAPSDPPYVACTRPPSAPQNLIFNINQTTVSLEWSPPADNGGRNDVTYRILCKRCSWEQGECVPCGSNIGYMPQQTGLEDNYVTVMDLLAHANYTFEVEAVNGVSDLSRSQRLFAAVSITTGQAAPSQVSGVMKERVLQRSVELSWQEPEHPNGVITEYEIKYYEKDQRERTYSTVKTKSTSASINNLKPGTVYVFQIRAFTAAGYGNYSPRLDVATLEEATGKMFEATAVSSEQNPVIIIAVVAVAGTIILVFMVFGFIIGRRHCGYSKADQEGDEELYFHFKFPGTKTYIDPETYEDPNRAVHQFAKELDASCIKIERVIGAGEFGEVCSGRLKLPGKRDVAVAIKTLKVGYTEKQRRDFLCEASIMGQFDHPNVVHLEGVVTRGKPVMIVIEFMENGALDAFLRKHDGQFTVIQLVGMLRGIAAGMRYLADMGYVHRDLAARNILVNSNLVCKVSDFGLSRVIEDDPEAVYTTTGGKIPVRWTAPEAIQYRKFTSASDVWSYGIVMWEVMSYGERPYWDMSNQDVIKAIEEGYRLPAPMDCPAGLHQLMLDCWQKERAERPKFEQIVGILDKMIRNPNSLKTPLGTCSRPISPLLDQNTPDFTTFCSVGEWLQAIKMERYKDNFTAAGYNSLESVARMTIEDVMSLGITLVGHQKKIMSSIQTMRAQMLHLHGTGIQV
Chain of Leukocyte tyrosine kinase receptor (P29376 whole entry): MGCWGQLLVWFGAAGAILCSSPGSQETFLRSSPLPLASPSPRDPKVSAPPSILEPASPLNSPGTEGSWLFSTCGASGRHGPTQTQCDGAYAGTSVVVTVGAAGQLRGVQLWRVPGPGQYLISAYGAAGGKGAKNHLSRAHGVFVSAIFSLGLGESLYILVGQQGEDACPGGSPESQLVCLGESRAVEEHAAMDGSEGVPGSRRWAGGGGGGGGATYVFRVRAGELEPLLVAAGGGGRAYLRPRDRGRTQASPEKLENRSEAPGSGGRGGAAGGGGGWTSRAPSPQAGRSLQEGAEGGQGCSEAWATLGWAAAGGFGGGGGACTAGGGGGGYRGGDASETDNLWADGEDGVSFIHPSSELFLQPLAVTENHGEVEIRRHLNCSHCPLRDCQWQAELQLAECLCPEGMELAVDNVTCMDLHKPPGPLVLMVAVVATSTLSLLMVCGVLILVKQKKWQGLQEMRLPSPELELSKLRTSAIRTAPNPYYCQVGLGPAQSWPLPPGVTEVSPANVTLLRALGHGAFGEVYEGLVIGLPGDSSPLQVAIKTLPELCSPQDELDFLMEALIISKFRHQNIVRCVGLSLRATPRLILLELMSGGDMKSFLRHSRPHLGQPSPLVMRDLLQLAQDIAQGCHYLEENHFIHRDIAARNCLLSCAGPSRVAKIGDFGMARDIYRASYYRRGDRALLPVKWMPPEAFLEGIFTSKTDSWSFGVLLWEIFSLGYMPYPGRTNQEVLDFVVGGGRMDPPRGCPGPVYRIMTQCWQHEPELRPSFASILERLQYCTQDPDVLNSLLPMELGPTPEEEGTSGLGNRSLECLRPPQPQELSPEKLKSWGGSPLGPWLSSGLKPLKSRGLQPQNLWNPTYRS
Chain of Mitogen-activated protein kinase 14 (Q16539 whole entry): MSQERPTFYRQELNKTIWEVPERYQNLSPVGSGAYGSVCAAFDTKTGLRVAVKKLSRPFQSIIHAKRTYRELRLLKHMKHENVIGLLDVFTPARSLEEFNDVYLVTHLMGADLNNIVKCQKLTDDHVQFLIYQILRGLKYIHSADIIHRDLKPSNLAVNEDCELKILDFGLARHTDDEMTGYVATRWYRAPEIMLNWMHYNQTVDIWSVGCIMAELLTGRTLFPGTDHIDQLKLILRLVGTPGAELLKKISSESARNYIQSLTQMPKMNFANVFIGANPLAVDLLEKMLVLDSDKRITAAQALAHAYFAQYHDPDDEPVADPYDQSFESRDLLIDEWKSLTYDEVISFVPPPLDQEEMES
Chain of Phosphatidylinositol 4-kinase beta (Q9UBF8 2-816 limits assumed): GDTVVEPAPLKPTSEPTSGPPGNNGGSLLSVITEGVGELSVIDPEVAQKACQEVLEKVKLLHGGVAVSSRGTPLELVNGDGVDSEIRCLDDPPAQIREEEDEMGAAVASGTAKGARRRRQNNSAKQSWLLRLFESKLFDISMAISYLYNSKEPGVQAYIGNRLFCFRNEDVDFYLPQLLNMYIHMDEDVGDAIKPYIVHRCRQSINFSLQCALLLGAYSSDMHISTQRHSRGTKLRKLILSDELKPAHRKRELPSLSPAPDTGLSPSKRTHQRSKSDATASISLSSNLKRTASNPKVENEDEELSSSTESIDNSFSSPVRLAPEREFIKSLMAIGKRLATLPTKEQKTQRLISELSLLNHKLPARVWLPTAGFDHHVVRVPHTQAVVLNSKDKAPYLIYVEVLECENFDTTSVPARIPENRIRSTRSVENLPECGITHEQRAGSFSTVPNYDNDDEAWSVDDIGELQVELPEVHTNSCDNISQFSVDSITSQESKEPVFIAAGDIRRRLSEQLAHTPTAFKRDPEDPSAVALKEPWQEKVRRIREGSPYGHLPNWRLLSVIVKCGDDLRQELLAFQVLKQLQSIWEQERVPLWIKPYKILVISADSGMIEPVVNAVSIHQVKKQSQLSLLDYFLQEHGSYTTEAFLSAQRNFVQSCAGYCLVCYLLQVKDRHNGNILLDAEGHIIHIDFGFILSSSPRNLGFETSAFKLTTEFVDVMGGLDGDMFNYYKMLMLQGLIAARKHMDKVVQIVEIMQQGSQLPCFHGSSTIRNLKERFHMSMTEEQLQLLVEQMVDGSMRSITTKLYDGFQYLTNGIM

SMILES: C=CC(=O)Nc1ccc(C(=O)Nc2[nH]nc3c2CN(C(=O)N[C@H](CN(C)C)c2ccccc2)C3(C)C)cc1
- % of engagement [1]: 5.7%
- % of engagement [2]: -11.3%

SMILES: COCC(=O)NC/C=C/c1ccc2ncnc(Nc3ccc(Oc4ccc(C)nc4)c(C)c3)c2c1 [CP-724714]
- % of control [3]: 100%

SMILES: O=C(NOC[C@H](O)CO)c1ccc(F)c(F)c1Nc1ccc(I)cc1F
- % of control (Aurora kinase B): 99%
- % of control [4]: 67%

SMILES: Cc1cc([C@@H](C)Nc2ccccc2C(=O)O)c2nc(N3CCOCC3)cc(=O)n2c1 [AZD-6482]
- % of control [5]: 58%

SMILES: N#Cc1cccc(-c2c[nH]c3ncnc(N4CCOCC4)c23)c1
- % of control [6]: 9.8%

SMILES: CNC(=O)Nc1ccc(-c2nc(N3CC4CCC(C3)O4)c3cnn(C4CCC5(CC4)OCCO5)c3n2)cc1
- % of control [7]: 68%

SMILES: O[C@H]1CC[C@H](Nc2ncc3nc(Nc4c(F)cc(F)cc4F)n([C@H]4CCOC4)c3n2)CC1
- % of control [8]: 71%
- % of control [9]: 3.4%

SMILES: CC[C@@H]1[C@H](F)C(=O)N[C@@H]1COc1nccc2cc(C(N)=O)c(OC)cc12 [ZIMLOVISERTIB]
- % of inhibition [10]: 14.6%
